According to paper PMC5322338 (Scientific Reports, 2017):
One block for each substance: values may come before it.

Experiments:
[1] = biological target: T1, Human neutrophil elastase (Homo sapiens, UniProt P08246); assay: IQF substrate hydrolysis kinetics with neutrophil elastase; assay type: biochemical; settings: substrate 0.3-5 μM, 0.1 M HEPES, 0.5 M NaCl pH 7.5, 37 °C, mean of at least three, SD <10%
T1 construct: purchased Biocentrum (Krakow, Poland)
T1 sequence (P08246 30-267): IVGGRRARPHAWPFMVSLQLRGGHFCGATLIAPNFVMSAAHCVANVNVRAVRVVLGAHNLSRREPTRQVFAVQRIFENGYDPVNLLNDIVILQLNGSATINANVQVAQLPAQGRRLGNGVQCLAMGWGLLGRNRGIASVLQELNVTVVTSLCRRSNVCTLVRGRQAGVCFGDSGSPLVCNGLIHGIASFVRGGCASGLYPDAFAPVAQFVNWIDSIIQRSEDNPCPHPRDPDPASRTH
Method: (§1) All kinetic measurements were performed using a Spectra Max Gemini XPS spectrofluorimeter (Molecular Devices) at 37 °C. For the substrates with the new donor acceptor pair, ACC/DNP, the excitation wavelength was 355 nm, and the emission wavelength was 460 nm; for MCA/DNP, the corresponding values were 325 and 420 nm, respectively. The substrate concentrations were varied, and the enzyme concentration was kept constant in each assay; the total reaction volume was 100 μl. Measurements were conducted for 30 min, and only the linear part of the progress curve was used to determine the reaction velocity. The measurements were repeated, and the data presented are the average of at least three measurements. The catalytic parameters kcat and KM were established using GraphPad Prism software to directly fit the initial velocities and initial substrate concentrations to the Michaelis-Menten equation using non-linear regression analysis.
Assays with neutrophil elastase were performed in a buffer containing 0.1 M HEPES and 0.5 M NaCl at pH 7.5[9]. The enzyme was incubated in assay buffer for 10 min at 37 °C prior to the substrate addition and the measurement. For elastase, the concentration of substrates containing ACC ranged from 0.3 to 5 μM, and the enzyme concentration was 0.344 nM. The concentration of substrates containing MCA was ranged from 0.3 to 5 μM, and the enzyme concentration was 1.4 nM.

[2] = biological target: T2, caspase-3 (Homo sapiens, UniProt P42574); assay: IQF substrate hydrolysis kinetics with caspase-3; assay type: biochemical; settings: substrate 1-50 μM, Pipes buffer pH 7.2-7.4, 37 °C, mean of at least three, SD <10%
T2 construct: made in house
T2 sequence (P42574 29-175 limits assumed): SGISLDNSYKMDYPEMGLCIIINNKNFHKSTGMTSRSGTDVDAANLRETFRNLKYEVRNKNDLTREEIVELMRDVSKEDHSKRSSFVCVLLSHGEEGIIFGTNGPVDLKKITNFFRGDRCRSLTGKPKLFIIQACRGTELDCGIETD
T2 sequence (P42574 176-277 limits assumed): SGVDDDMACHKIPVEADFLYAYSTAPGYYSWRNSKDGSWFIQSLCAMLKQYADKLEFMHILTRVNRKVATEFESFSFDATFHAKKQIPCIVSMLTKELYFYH
Method: as §1
(§2) Caspase assays were performed in a buffer containing 20 mM Pipes, 0.1 M NaCl, 1 mM EDTA, 10 mM DTT, and 10% (w/v) sucrose at pH 7.2 to 7.4[61]. The buffer used for caspase-8, caspase-9 and caspase-10 was supplemented with 1 M sodium citrate. Each caspase was incubated with assay buffer for 30 min at 37 °C before the substrates were added. For caspase-3, the concentration of substrates containing ACC or MCA on the measurement plate ranged from 1 to 50 μM, and the enzyme concentration ranged from 1 to 3 nM. For caspase-7, the concentration of substrates containing ACC or MCA on the measurement plate ranged from 1 to 50 μM, and the enzyme concentration ranged from 10 to 30 nM. For caspase-8, the concentration of a substrates containing ACC or MCA on the measurement plate ranged from 4 to 80 μM, and the enzyme concentration ranged from 20 to 50 nM.
(§3) To obtain further insight into the caspase P1-P1′ preferences, we determined the kinetic parameters for selected IQF substrates. The kinetic analysis was performed in a similar manner to that described above (Substrate Kinetics). The buffers used for caspase-8, caspase-9, and caspase-10 were supplemented with 1.0 M sodium citrate. The enzyme concentrations were as follows: caspase-3, 6 nM; caspase-7, 25 nM; caspase-8, 30–60 nM; caspase-9, 20–140 nM; and caspase-10, 25–125 nM. When testing initiator caspases, the higher enzyme concentration was used for non-optimal LEHE/X substrates.

[3] = biological target: T3, caspase-7 (Homo sapiens, UniProt P55210); assay: IQF substrate hydrolysis kinetics with caspase-7; assay type: biochemical; settings: substrate 1-50 μM, Pipes buffer pH 7.2-7.4, 37 °C, mean of at least three, SD <10%
T3 construct: made in house
T3 sequence (P55210 24-198 limits assumed): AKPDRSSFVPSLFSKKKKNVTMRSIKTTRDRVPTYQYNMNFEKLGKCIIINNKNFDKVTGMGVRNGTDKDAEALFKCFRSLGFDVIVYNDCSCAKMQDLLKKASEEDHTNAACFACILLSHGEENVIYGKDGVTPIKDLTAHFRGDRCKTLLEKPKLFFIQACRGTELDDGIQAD
T3 sequence (P55210 207-303 limits assumed): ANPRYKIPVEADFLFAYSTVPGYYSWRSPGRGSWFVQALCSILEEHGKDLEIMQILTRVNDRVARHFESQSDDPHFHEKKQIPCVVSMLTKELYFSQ
Method: as §1, §2, §3

[4] = biological target: T4, caspase-8 (Homo sapiens, UniProt Q14790); assay: IQF substrate hydrolysis kinetics with caspase-8; assay type: biochemical; settings: substrate 4-80 μM, Pipes buffer pH 7.2-7.4 with 1 M sodium citrate, 37 °C, mean of at least three, SD <10%
T4 construct: made in house
Method: as §1, §2, §3

[5] = system: caspase-3; assay: caspase-3 in caspase buffer, IQF library screening and kinetics; settings: human, 37 °C, up to 30 min
[6] = system: caspase-7; assay: caspase-7 in caspase buffer, IQF library screening and kinetics; settings: human, 37 °C, up to 30 min
[7] = system: Trypsin; assay: trypsin in 0.05 M Tris, 0.15 M NaCl, 0.01% Triton X100, pH 7.6; settings: 37 °C, up to 30 min
[8] = system: caspase-10; assay: caspase-10 in caspase buffer supplemented with 1.0 M sodium citrate, IQF library screening and kinetics; settings: human, 37 °C, up to 30 min
[9] = system: caspase-8; assay: caspase-8 in caspase buffer supplemented with 1.0 M sodium citrate, IQF library screening and kinetics; settings: human, 37 °C, up to 30 min
[10] = system: caspase-9; assay: caspase-9 in caspase buffer supplemented with 1.0 M sodium citrate, IQF library screening and kinetics; settings: human, 37 °C, up to 30 min
[11] = system: trypsin; assay: IQF substrate hydrolysis kinetics with trypsin; assay type: biochemical; settings: for kcat/Km values: ACC-GGLSX*IVK(DNP)G substrates, residue named = P1, trypsin
Method: as §1, with “For the substrates with the new donor acceptor pair, ACC/DNP, the excitation wavelength was 355 nm, and the emission wavelength was 460 nm; for MCA/DNP, the corresponding values were 325 and 420 nm, respectively.” left out
Trypsin was assayed in a buffer containing 0.05 M Tris, 0.15 M NaCl, and 0.01% Triton X100 at pH 7.6. The enzyme was incubated with the assay buffer for 10 min at 37 °C prior to the substrate addition and the measurement. Eight internally quenched substrates were tested in the assay. The trypsin concentration for substrates containing Arg and Lys at P1 was 0.1 nM; for Arg(Me) substrates, the enzyme concentration was 30 nM; and for all other substrates, the enzyme concentration was 200 nM.

[12] = ACC/Lys(DNP) substrate, elastase 0.34 nM, ex 355/em 460 nm
[13] = ACC/Lys(DNP) substrate, caspase-3 1.0 nM, ex 355/em 460 nm
[14] = ACC/Lys(DNP) substrate, caspase-7 10 nM, ex 355/em 460 nm
[15] = ACC/Lys(DNP) substrate, caspase-8 20 nM, ex 355/em 460 nm
[16] = ACC-GGLS(P1)*IVK(DNP)G-NH2 hydrolysis by trypsin, trypsin 0.1 nM (Arg, Lys), 30 nM (Arg(Me)), 200 nM (all others), 0.05 M Tris, 0.15 M NaCl, 0.01% Triton X100 pH 7.6, 37 °C, SD <10% (Arg/Lys), <15% (modified)
[17] = MCA/Lys(DNP) substrate, elastase 1.4 nM, ex 325/em 420 nm
[18] = MCA/Lys(DNP) substrate, caspase-3 3.0 nM, ex 325/em 420 nm
[19] = MCA/Lys(DNP) substrate, caspase-7 30 nM, ex 325/em 420 nm
[20] = MCA/Lys(DNP) substrate, caspase-8 50 nM, ex 325/em 420 nm

T4 sequence (Q14790 217-374 limits assumed): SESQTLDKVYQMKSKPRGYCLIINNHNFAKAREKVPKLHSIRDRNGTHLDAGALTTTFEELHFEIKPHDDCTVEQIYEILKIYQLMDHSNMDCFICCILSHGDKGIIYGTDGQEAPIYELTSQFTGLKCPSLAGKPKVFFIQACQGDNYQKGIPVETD
T4 sequence (Q14790 385-479 limits assumed): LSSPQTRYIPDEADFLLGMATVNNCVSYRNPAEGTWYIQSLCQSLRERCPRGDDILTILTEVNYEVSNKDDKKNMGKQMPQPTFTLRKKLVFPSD

cleaved bond [5]: D-S
cleaved bond [6]: D-S
Substance: ACC-GDEVD/XKK(dnp)G-NH2 [DEVD/S]

cleaved bond [5]: E-S
cleaved bond [6]: E-S
Substance: ACC-GDEVE/XKK(dnp)G-NH2 [DEVE/S]

not cleaved [7]: No measurable hydrolysis
Substance: ACC-GGLS(P1)*IVK(DNP)G-NH2

cleaved bond [7]: Arginine-I
Substance: ACC-GGLS(P1)*IVK(DNP)G-NH2 [ACC-GGLS(P1)*IVK(DNP)G-NH2, P1 = Arginine]

cleaved bond [7]: Citrulline-I
Substance: ACC-GGLS(P1)*IVK(DNP)G-NH2 [ACC-GGLS(P1)*IVK(DNP)G-NH2, P1 = Citrulline]

cleaved bond [8]: D-A
cleaved bond [9]: D-A
cleaved bond [10]: D-A
Substance: ACC-GLEHD(G/A/S)KK(dnp)G-NH2 [LEHD/A]

cleaved bond [8]: D-S
cleaved bond [9]: D-S
cleaved bond [10]: D-S
Substance: ACC-GLEHD(G/A/S)KK(dnp)G-NH2 [LEHD/S]

cleaved bond [8]: E-G
cleaved bond [9]: E-G
cleaved bond [10]: E-G
Substance: ACC-GLEHE(G/A/S)KK(dnp)G-NH2 [LEHE/G]

cleaved bond [8]: E-S
cleaved bond [9]: E-S
cleaved bond [10]: E-S
Substance: ACC-GLEHE(G/A/S)KK(dnp)G-NH2 [LEHE/S]

KM [11, 16]: No measurable hydrolysis
kcat/KM [11, 16]: No measurable hydrolysis
kcat/Km values [11]: did not recognize
Substance: Alanine
kcat [11, 16]: No measurable hydrolysis

Km [11, 16]: 90.3 µM
kcat/KM [11, 16]: 4 s^−1M^−1
Substance: Citrulline
kcat [11, 16]: 0.000359 s⁻¹

Km [11, 16]: 21.9 µM
kcat/KM [11, 16]: 78 s^−1M^−1
Substance: Ornithine
kcat [11, 16]: 0.0017 s⁻¹

More lines, now with the values behind:

Substance: ACC-GAEPV*SLK(dnp)L-NH2 [ACC/Lys(DNP) internally quenched fluorescent substrate for human neutrophil elastase]
Km [1, 12]: 1.22 µM
kcat [1, 12]: 2.44 s⁻¹
kcat/KM [1, 12]: 2 006 000 M^−1s^−1

Substance: ACC-GDEVD*GVK(dnp)D-NH2 [ACC/Lys(DNP) internally quenched fluorescent substrate for caspases]
Km [2, 13]: 6.74 µM
kcat [2, 13]: 7.52 s⁻¹
kcat/KM [2, 13]: 1 116 000 M^−1s^−1
Km [3, 14]: 8.36 µM
kcat [3, 14]: 0.47 s⁻¹
kcat/KM [3, 14]: 56 800 M^−1s^−1
Km [4, 15]: 11 µM
kcat [4, 15]: 0.32 s⁻¹
kcat/KM [4, 15]: 29 400 M^−1s^−1

Substance: ACC-GDEVD/XKK(dnp)G-NH2 [DEVD/A]
cleaved bond [5]: D-A
cleaved bond [6]: D-A

Substance: ACC-GDEVD/XKK(dnp)G-NH2 [DEVD/G]
cleaved bond [5]: D-G
cleaved bond [6]: D-G

Substance: ACC-GLEHD(G/A/S)KK(dnp)G-NH2 [LEHD/G]
cleaved bond [8]: D-G
cleaved bond [9]: D-G
cleaved bond [10]: D-G

Substance: ACC-GLEHE(G/A/S)KK(dnp)G-NH2 [LEHE/A]
cleaved bond [8]: E-A
cleaved bond [9]: E-A
cleaved bond [10]: E-A

Substance: Arginine
Km [11, 16]: 2.5 µM
kcat [11, 16]: 24.1 s⁻¹
kcat/KM [11, 16]: 9 624 000 s^−1M^−1
kcat/Km values [11]: 9,624,000 M^−1s^−1

Substance: Lysine
Km [11, 16]: 2.8 µM
kcat [11, 16]: 4.2 s⁻¹
kcat/KM [11, 16]: 1 500 000 s^−1M^−1
kcat/Km values [11]: 1,500,000 M^−1s^−1

Substance: MCA-GAEPV*SLK(dnp)L-NH2 [MCA/Lys(DNP) internally quenched fluorescent substrate for human neutrophil elastase]
Km [1, 17]: 2.27 µM
kcat [1, 17]: 2.58 s⁻¹
kcat/KM [1, 17]: 1 147 219 M^−1s^−1

Substance: MCA-GDEVD*GVK(dnp)D-NH2 [MCA/Lys(DNP) internally quenched fluorescent substrate for caspases]
Km [2, 18]: 4.67 µM
kcat [2, 18]: 11.24 s⁻¹
kcat/KM [2, 18]: 2 359 000 M^−1s^−1
Km [3, 19]: 6.17 µM
kcat [3, 19]: 0.68 s⁻¹
kcat/KM [3, 19]: 106 000 M^−1s^−1
Km [4, 20]: 11.7 µM
kcat [4, 20]: 0.32 s⁻¹
kcat/KM [4, 20]: 26 300 M^−1s^−1
